These results are taken from patent US20210030703A1, “USE OF CALORIC RESTRICTION MIMETICS FOR POTENTIATING CHEMO-IMMUNOTHERAPY FOR THE TREATMENT OF CANCERS” (INSERM (INSTITUT NATIONAL DE LA SANTÉ ET DE LA RECHERCHE …, priority 2018, published 2021).

The conditions of test [1]: background, reference (9); cited from earlier work.
In test [2] the test system is MCA205 fibrosarcoma. In words: Subcutaneous MCA205 fibrosarcoma: tumor growth, cure and survival under chemo-immunotherapy. It is filed as in vivo, C57B1/6 mice.
Test [3] relates to whole MCA205 tumors. Description: RNA-seq analyses of whole tumors. The test is classed as in vivo, C57B1/6 mice. The note with it: day 3 post-chemotherapy (MTX); data not shown.
Test [4] has as its system MCA205 fibrosarcoma. Description: Subcutaneous MCA205 fibrosarcoma: tumor growth, cure and survival under chemo-immunotherapy. The test is classed as in vivo, C57B1/6 mice. The note with it: for Efficacy of MTX + ICIs (anti-PD-1 plus anti-CTLA-4) chemo-immunotherapy when the CRM is added: figure legends FIG. 2, 3, 4, 6. Here is the method: Mouse strain and housing. Six- to 8-week-old wild-type female C57B1/6 mice were obtained from Envigo RMS SARL (Gannat, France). Animals were maintained in specific pathogen-free conditions in a temperature-controlled environment with 12 h light, 12 h dark cycles and received food and water ad libitum (unless precised otherwise). Animal experiments were in compliance with the EU Directive 63/2010 and approved by the Ethical Committee of the Cordeliers Research Center (Paris, France). All mouse experiments were randomized and blinded, and sample sizes were calculated to detect a statistically significant effect.
In vivo experimentations. Tumor engraftment was performed through subcutaneous injection of 3×10^5 MCA205 fibrosarcoma tumor cells (in 100 μl PBS) in the right flank of the mice. Tumor volume was monitored using a digital caliper and calculated according to the formula: volume=length×width×height/8×4/3 pi. When tumor reached 20 mm^3 on average, mice underwent fasting (48 hours without food but ad libitum access to water) or were given caloric restriction mimetics (CRMs) such as aspirin (Asp; 10 mg/kg i.p. in 200 μl phosphate buffered saline [PBS] five times per week), hydroxycitrate (HC; 5 mg/ml in drinking water daily) or spermidine (Spd; 50 mg/kg i.p. in 200 μl Earle's balanced salt solution three times per week), or were treated with mitoxantrone (MTX; 5.17 mg/kg i.p. in 200 μl PBS), or with the immune checkpoint inhibitors (ICIs) anti-PD-1 (10 mg/kg i.p. in 200 μl PBS) and/or anti-CTLA-4 (5 mg/kg i.p. in 200 μl PBS). Tumor size was carefully monitored up to 50 days post-MTX. Antitumor immunity induced by the treatment in cured mice was challenged by subcutaneously re-engrafting the same tumor (3×10^5 syngeneic MCA205 fibrosarcoma cells) in one flank while an antigenically unrelated cancer (3×10^5 syngeneic TC1 lung carcinoma cells) was implanted into the contralateral flank.
Statistical analyses. For tumor size comparison, Student unpaired t test or one-way ANOVA (Holm-Sidak) were performed. All statistical analyses were performed using GraphPad Prism version 6 for Windows (GraphPad Software, La Jolla, Calif., USA). Differences were considered significant when p value<0.05.

Test [5] concerns MCA205 fibrosarcoma cells. Description: Rechallenge of cured mice with the same tumor (MCA205). It is filed as in vivo, C57B1/6 mice. The note with it: mice cured from MCA205 following MTX+ICIs+Spd treatment (FIG. 4G). Here is the method:
(§1) In vivo experimentations. Tumor engraftment was performed through subcutaneous injection of 3×10^5 MCA205 fibrosarcoma tumor cells (in 100 μl PBS) in the right flank of the mice. […] Tumor size was carefully monitored up to 50 days post-MTX. Antitumor immunity induced by the treatment in cured mice was challenged by subcutaneously re-engrafting the same tumor (3×10^5 syngeneic MCA205 fibrosarcoma cells) in one flank while an antigenically unrelated cancer (3×10^5 syngeneic TC1 lung carcinoma cells) was implanted into the contralateral flank.

Test [6] relates to immune infiltrate of MCA205 tumors. In words: Immunophenotyping of the tumor immune infiltrate by flow cytometry. The note with it: data not shown. The test is classed as in vivo, C57B1/6 mice. The protocol: 3 or 11 days post-chemotherapy (d3 or d11), mice were euthanized and the tumors were withdrawn and placed in gentleMACS C tubes (ref 130-096-334 from Miltenyi BiotecTM) previously filled with 1 ml of DMEM or RPMI medium, and immediately put on ice. […] Then, cells were stained with a live dead dye (ref L34959 from ThermoFisher ScientificTM) and an FCblock receptor targeting antibody. For the surface stainings, several anti-mouse fluorochrome-coupled antibodies were employed, that were for 1) myeloid cells “staining 1”: anti-CD45 APC-Fire750 (clone 30E-11, ref 130154 BiolegendTM), anti-Ly-6G PE (clone 1A8, ref 551461 BDTM), anti-Ly-6C FITC (clone AL-21, ref 553104, BDTM), anti-CD11b V450 (clone M1/70, ref 560455 BDTM), anti-CD11c PE-Cy7 (clone HL3, ref 558470 BDTM), anti-CD80 PerCP-Cy5.5 (16-10A1, ref 104722 BiolegendTM), and anti-MHC-II APC (clone M5/114.15.2, ref 107614 BiolegendTM) 2) T-cells “staining 2”: anti-CD3 APC (clone 17A2, ref 17-0032-82 eBioscienceTM), anti-CD8 PE (clone 53-6.7, ref 553032 BDTM), anti-CD4 PerCP-Cy5.5 (clone RM4-5, ref 45-0042-82 eBioscienceTM), anti-CD25 PE-Cy7 (clone PC61.5, ref 25-0251-82 InvitrogenTM), anti-ICOS BV421 (clone 7E.17G9, ref 564070 BDTM) and anti-PD-1 APC-Fire750 (clone 29F.1Al2, ref 135240 BiolegendTM) 3) PD-L1 expressing-cells “staining 4”: anti-CD45 AlexaFluor647 (clone 30E-11, ref 103-124 BiolegendTM), anti-PD-L1 BV421 (clone MIHS, ref 564716 BDTM) and anti-PD-L2 PE-Dazzle594 (clone TY25, ref 107215 BiolegendTM) 4) NKT cells “staining 5”: anti-CD3 FITC (clone 17A2, ref 11-00-32-82 eBioscienceTM) and anti-NK1.1 PerCP-Cy5.5 (clone PK136, ref 551114 BDTM). After the fixation and permeabilization of the cells (thanks to the Cytofix/Cytoperm kit, ref 554714 BDTM for stainings 1, 3, 4 and 5; and with the Foxp3/Transcription Factor kit, ref 00-5523-00 eBioscienceTM for staining 2), intracellular stainings were performed using for “staining 2”: anti-FoxP3 FITC (clone FJK-16s, ref 11-5773-82 eBioscienceTM) and for “staining 3”: anti-IFNg APC (clone XMG1.2, ref 505-810 BiolegendTM), anti-TNFα APC-Cy7 (clone MP6-XT22, ref 506344 BiolegendTM) and anti-IL-2 PE-Dazzle 594 (clone JES6-5H4, ref 503-840 BiolegendTM). Finally, cells were resuspended in FACS buffer and analyzed on a flow cytometer BD LSR II.
For orientation: A flow cytometer gives signals particle by particle.

The subject of test [7] is TC1 lung carcinoma cells. In words: Rechallenge of cured mice with antigenically unrelated TC1 cells in the contralateral flank. The test is classed as in vivo, C57B1/6 mice. The note with it: mice cured from MCA205 following MTX+ICIs+Spd treatment (FIG. 4G). Here is the method:
as §1

Turning to `CC1=NN(c2ccc(C(=O)O)cc2)C(=O)/C1=C\c1ccc(-c2cc(C)c(C)cc2[N+](=O)[O-])o1` [C646], the “Efficacy of anticancer chemotherapy with immunogenic cell death (ICD) inducers” value (from here on “Efficacy of anticancer chemotherapy”) in test [1] is listed as “able to improve the efficacy”.
As to `O=C1[O][Pt]2([NH][C@@H]3CCCC[C@H]3[NH]2)[O]C1=O` [OXA, [(1R,2R.)-cyclohexane-1,2-diamine](ethanedioato-O,O′)platinum(II)], the Cure rate in test [2] (OXA+PD-1 blockade) was 40%.
As to `O=C(O)C[C@]1(O)C[C@H](CCCCCCc2ccc(Cl)cc2Cl)OC1=O` [SB2049901, (3R,5S)-re1-5-[6-(2,4-Dichlorophenyl)hexyl]tetrahydro-3-hydroxy-2-oxo-3-furanacetic acid], in test [1], the “Efficacy of anticancer chemotherapy” value is recorded as “able to improve the efficacy”.
Consider `NCCCCNCCCN` [spermidine, H2N—(CH2)3-NH(CH2)4-NH2], for which the “Evidence of local immunostimulation” value in test [3] is reported as “failed to yield convincing evidence”. Further, the Tumor-free mice in test [4] (MTX pre-treatment associated with the CRM, then CTLA-4/PD-1-blocking antibodies (FIG. 6)) is listed as 8 out of 10. Moreover, the “Efficacy of MTX + ICIs (anti-PD-1 plus anti-CTLA-4) chemo-immunotherapy when the CRM is added” value in test [4] is “significantly improves tumor outcome”. The “Efficacy of MTX + ICIs (anti-PD-1 plus anti-CTLA-4) chemo-immunotherapy when the CRM is added” value in test [4] (listed as Spd) is listed as “further enhanced”. Also, in test [4] (pretreated with the CRM alone (without MTX), data not shown), the “Response to CTLA-4/PD-1-blockade” value is on record as “did not respond”. In addition, in test [4] (spermidine i.p. 3 times per week + MTX chemotherapy + dual CTLA-4/PD-1-targeting immunotherapy), the “Cure of established tumor” value is listed as 7 out of 9. In test [2] (CRM added to OXA+PD-1 blockade), the Cure rate is reported as 70% and the Cured mice is listed as 7 out of 10. In test [2] (figure legend FIG. 7), the “Efficacy of OXA and anti-PD-1 combination when the CRM is added” value is on record as “further enhanced”. For the same compound, the “Outgrowth of reinjected MCA205 cancer cells” value in test [5] was “did not led to the outgrowth”. Besides, the “Efficacy of anticancer chemotherapy” value in test [1] is “able to improve the efficacy”. Also, the “Increase in the density of total CD3+ and CD8+ T cell infiltrate” value in test [6] (combined with MTX) is recorded as “neither HC nor spermidine”. Further, the Myeloid infiltrate result in test [6] (day 3 post-chemotherapy (MTX)) is “no major increments”. Also, the “Macrophage subpopulation with an M1 phenotype (Ly6G-F4/80+CD11c-CD11b+CD38+)” value in test [6] (day 11 post-MTX) is “expansion”. Besides, in test [7], the “Tumor formation by TC1 cancer cells injected into the opposite flank” value was “yielded tumors”.
